From PMC9873984, “Membrane cholesterol regulates inhibition and substrate transport by the glycine transporter, GlyT2” (Life Science Alliance, 2023)

Test system: Xenopus laevis oocytes
Assay: Quantification of cholesterol content of oocytes (Amplex Red)
Type: cell-based
Details: 15 mM for 30 min at 32°C; normalized to control oocytes
Procedure: The cell was then unclamped and removed from the electrophysiology rig and placed in an incubator at 32°C in a solution containing 15 mM MβCD for 30 min. The oocyte was then replaced in the electrophysiology rig and washed for 10 min in recording buffer, the voltage clamp was re-established, and the glycine transport currents were remeasured. […] Under these conditions, MβCD caused a 44% reduction in membrane cholesterol content, which is consistent with previous studies in oocytes (Fig 4) ([Santiago et al, 2001]; [Sadler & Jacobs, 2004]).
Figure 4. Cholesterol levels of control and MβCD-treated Xenopus laevis oocytes. Groups of six oocytes were incubated in 0 mM (control) or 15 mM MβCD for 30 min at 32°C. After incubation, oocytes were lysed in 1% Triton X-100 by vortexing and manually disrupting the membranes with forceps. Cell lysates were centrifuged, and the cholesterol content of the supernatant was quantified using the Amplex Red method. […]
Control and MβCD-treated oocytes were lysed in 1% Triton X-100 (Sigma-Aldrich) by vortexing and manually disrupting the membranes with forceps. […] The supernatant was then treated in accordance with the manufacturer’s protocol for the Amplex Red Cholesterol Assay Kit (Thermo Fisher Scientific) to quantify differences in cholesterol content.

Substance: methyl-β-cyclodextrin [MβCD]
- Reduction in membrane cholesterol content: 44%
